Test results from PubChem BioAssay (NCI).
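96-well plates; 48 h exposure; 5 concentrations. Endpoints by linear interpolation between flanking doses. Not reached: highest tested concentration assigned. TGI marks complete inhibition of growth.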

Legend:
Assay in all cases: inhibition of tumour cell growth, NCI panel, 48 h
KM12 colon = tested on: KM12 colon
RPMI-8226 leukemia = tested on: RPMI-8226 leukemia
UACC-257 melanoma = tested on: UACC-257 melanoma
SNB-75 CNS = tested on: SNB-75 CNS
HOP-62 NSCLC = tested on: HOP-62 NSCLC
A498 renal = tested on: A498 renal
SNB-19 CNS = tested on: SNB-19 CNS
SK-MEL-2 melanoma = tested on: SK-MEL-2 melanoma
A549 NSCLC = tested on: A549 NSCLC
HT29 colon = tested on: HT29 colon
OVCAR-5 ovarian = tested on: OVCAR-5 ovarian
HS 578T breast = tested on: HS 578T breast
SF-295 CNS = tested on: SF-295 CNS
COLO 205 colon = tested on: COLO 205 colon
T-47D breast = tested on: T-47D breast
NCI-H23 lung = tested on: NCI-H23 lung
IGROV1 ovarian = tested on: IGROV1 ovarian
786-0 renal = tested on: 786-0 renal
NCI-H522 lung = tested on: NCI-H522 lung
NCI-H460 lung = tested on: NCI-H460 lung
UACC-62 melanoma = tested on: UACC-62 melanoma
SK-MEL-5 melanoma = tested on: SK-MEL-5 melanoma
MDA-MB-231 breast = tested on: MDA-MB-231 breast
CAKI-1 renal = tested on: CAKI-1 renal
OVCAR-8 ovarian = tested on: OVCAR-8 ovarian
MDA-N = tested on: MDA-N
TK-10 renal = tested on: TK-10 renal
ACHN renal = tested on: ACHN renal
U251 CNS = tested on: U251 CNS
K-562 leukemia = tested on: K-562 leukemia
EKVX NSCLC = tested on: EKVX NSCLC
PC-3 prostate = tested on: PC-3 prostate
DU-145 prostate = tested on: DU-145 prostate
SW-620 colon = tested on: SW-620 colon
HCC-2998 colon = tested on: HCC-2998 colon
SK-MEL-28 melanoma = tested on: SK-MEL-28 melanoma
HCT-116 colon = tested on: HCT-116 colon
OVCAR-4 ovarian = tested on: OVCAR-4 ovarian
M14 melanoma = tested on: M14 melanoma
MOLT-4 leukemia = tested on: MOLT-4 leukemia
MCF7 breast = tested on: MCF7 breast
RXF 393 renal = tested on: RXF 393 renal
UO-31 renal = tested on: UO-31 renal
HOP-92 NSCLC = tested on: HOP-92 NSCLC
OVCAR-3 ovarian = tested on: OVCAR-3 ovarian
BT-549 breast = tested on: BT-549 breast
SK-OV-3 ovarian = tested on: SK-OV-3 ovarian
MALME-3M melanoma = tested on: MALME-3M melanoma
HCT-15 colon = tested on: HCT-15 colon
MDA-MB-435 = tested on: MDA-MB-435
SF-268 CNS = tested on: SF-268 CNS
NCI/ADR-RES ovarian = tested on: NCI/ADR-RES ovarian

`CC(=O)/C=C(\O)c1[nH]c(C(=O)O)cc1C1CCN(Cc2ccccc2)C1=O` (configuration not stated) showed a TGI (KM12 colon) greater than 100 µM, a TGI (RPMI-8226 leukemia) of 49 µM and a TGI (UACC-257 melanoma) of 53.7 µM. For the same compound, the TGI (SNB-75 CNS) was 63.1 µM, the TGI (HOP-62 NSCLC) was 32.8 µM and the TGI (A498 renal) was greater than 100 µM. The TGI (SNB-19 CNS) was 83.5 µM, the TGI (SK-MEL-2 melanoma) was 54.9 µM and the TGI (A549 NSCLC) was 81.4 µM. It also gave a TGI (HT29 colon) of 89 µM, a TGI (OVCAR-5 ovarian) of 80.2 µM and a TGI (HS 578T breast) greater than 100 µM. For the same compound, the TGI (SF-295 CNS) was 48.7 µM, the TGI (COLO 205 colon) was 42.9 µM and the TGI (T-47D breast) was 49.8 µM. For the same compound, the TGI (NCI-H23 lung) was 35.3 µM, the TGI (IGROV1 ovarian) was 61.5 µM and the TGI (786-0 renal) was 47.6 µM. The TGI (NCI-H522 lung) was 49.7 µM, the TGI (NCI-H460 lung) was 32.3 µM and the TGI (UACC-62 melanoma) was 41.7 µM. The TGI (SK-MEL-5 melanoma) was 42.9 µM, the TGI (MDA-MB-231 breast) was greater than 100 µM and the TGI (CAKI-1 renal) was greater than 100 µM. It also gave a TGI (OVCAR-8 ovarian) of 36.4 µM, a TGI (MDA-N) of 33.8 µM and a TGI (TK-10 renal) greater than 100 µM. The TGI (ACHN renal) was greater than 100 µM, the TGI (U251 CNS) was greater than 100 µM and the TGI (K-562 leukemia) was 95.1 µM. The TGI (EKVX NSCLC) was 60.6 µM, the TGI (PC-3 prostate) was greater than 100 µM and the TGI (DU-145 prostate) was 59.2 µM. It also gave a TGI (SW-620 colon) greater than 100 µM, a TGI (HCC-2998 colon) of 46.4 µM and a TGI (SK-MEL-28 melanoma) of 43.8 µM. It also gave a TGI (HCT-116 colon) of 61.7 µM, a TGI (OVCAR-4 ovarian) greater than 100 µM and a TGI (M14 melanoma) of 29.6 µM. The TGI (MOLT-4 leukemia) was 53.9 µM, the TGI (MCF7 breast) was 65.7 µM and the TGI (RXF 393 renal) was 30.2 µM. For the same compound, the TGI (UO-31 renal) was 38.5 µM, the TGI (HOP-92 NSCLC) was 58.8 µM and the TGI (OVCAR-3 ovarian) was 54.9 µM. The TGI (BT-549 breast) was 58.1 µM, the TGI (SK-OV-3 ovarian) was 57.7 µM and the TGI (MALME-3M melanoma) was 46.3 µM. The TGI (HCT-15 colon) was 38.4 µM, the TGI (MDA-MB-435) was greater than 100 µM and the TGI (SF-268 CNS) was 49.5 µM. For the same compound, the TGI (NCI/ADR-RES ovarian) was 28.9 µM.
